Reference: the supplement of paper PMC10290057
Structures can show the parent of a compound that is named as a salt.

system: HCT116; assay: efficacy (fitted maximal change in viability relative to DMSO control); higher = less cytotoxic (negative = loss of viability); conditions: 48 h
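Note: Luminescence-based viability readout, five doses per compound, normalized against on-plate DMSO and empty-well controls, followed by dose-response curve fitting for every drug.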

SMILES	efficacy [%]
CN1C[C@@H]2c3ccccc3Oc3ccc(Cl)cc3[C@H]2C1 [Asenapine maleate]	-77.1
CC(C)(O)[C@H]1CC[C@@](C)([C@H]2[C@@H](O)C[C@@]3(C)[C@@H]4C[C@H](O[C@@H]5O[C@H](CO)[C@@H](O)[C@H](O)[C@H]5O)[C@H]5C(C)(C)[C@@H](O[C@@H]6OC[C@@H](O)[C@H](O)[C@H]6O)CC[C@@]56C[C@@]46CC[C@]23C)O1 [Astragaloside A]	6.04
CC/1=C/2C[C@H]3C(=C)CCC[C@]3(C)/C=C2OC1=O [Atractylenolide I]	6.55
CN1C2CCC1CC(OC(=O)C(CO)c1ccccc1)C2 (stereo unspecified) [Atropine (sulfate monohydrate)]	-6.96
COc1ccc([C@@H]2CC(=O)c3c(O)cc(O[C@@H]4O[C@H](CO[C@@H]5O[C@@H](C)[C@H](O)[C@@H](O)[C@H]5O)[C@@H](O)[C@H](O)[C@H]4O)cc3O2)cc1O [Aurantiamarin (Methyl Hesperidin)]	-15
Cc1ccc(NC(=O)[C@H]2CCCN(C(=O)c3c(C)cccc3F)[C@H]2c2ccc(NC3CCCC3)cc2)cc1C(F)(F)F [Avacopan]	-27.6
NC(=O)[C@@H](CCC(F)(F)F)N(Cc1ccc(-c2ncon2)cc1F)[S+](=O)([O-])c1ccc(Cl)cc1 [Avagacestat]	-65.8
COc1ccc(C(=O)CC(=O)c2ccc(C(C)(C)C)cc2)cc1 [Avobenzone]	-43.1
CN1C(=O)COc2c(C(=O)NC3CN4CCC3CC4)cc(Cl)cc21 (stereo unspecified) [Azasetron hydrochloride]	21.5
CC[C@H]1OC(=O)[C@H](C)[C@@H](O[C@H]2C[C@@](C)(OC)[C@@H](O)[C@H](C)O2)[C@H](C)[C@@H](O[C@@H]2O[C@H](C)C[C@H](N(C)C)[C@H]2O)[C@](C)(O)C[C@@H](C)CN(C)[C@H](C)[C@@H](O)[C@]1(C)O [Azithromycin]	-20.7
CCOc1ccccc1N/N=C1/C(=O)N(c2nc(-c3ccccc3)cs2)N=C1C [BAM-7]	-7.98
O=C(O)CC(C(=O)O)N1C(=O)/C(=C2/C(=O)Nc3ccc(Br)cc32)SC1=S (stereo unspecified) [BCL6 Inhibitor]	-11.7
CN(C)CCN(C)CCc1ccc(Cl)c(Cl)c1 [BD-1047]	-29.2
C[C@H]1CC2[C@@H]3CCC/4=C/C(=O)/C=C\[C@]4(C)[C@@]3(F)[C@@H](O)C[C@]2(C)[C@@]1(O)C(=O)CO (stereo partly specified) [BETAMETHASONE]	-11.5
O=C(Nc1cccc(C(F)(F)F)c1)c1cccc2cc(Oc3cc(CO)ncn3)ccc12 [BFH-772]	15.5
N/C(=N\OCC(O)CN1CCCCC1)c1cccnc1 (stereo unspecified) [BGP-15]	-14.5
OC1=CC=C2\C3=C(CNCC3)/C(=O)OC2=C1C4OCCCO4 [BI09]	9.24
CC[C@@H]1C(=O)N(C)c2cnc(Nc3ccc(C(=O)NC4CCN(C)CC4)cc3OC)nc2N1C1CCCC1 [BI-2536]	-71.6
COC1=CC(=CC(=C1CN(C)C)OC)\C2=C\N(C)C(=O)C3=C2C=CN=C3 [BI-7273]	-29.9
C/C(=C\C(=O)Nc1ccccc1C(=O)O)c1ccc2ccccc2c1 [BIBR-1532]	-69.1
C=CC(=O)N[C@H]1CCOC[C@H]1Nc1ncc2cc(-c3c(Cl)c(OC)cc(OC)c3Cl)ccc2n1 [BLU-554]	-30.8
C=CC(=O)Nc1cccc(C)c1Nc1ncc2cc(-c3c(Cl)c(OC)cc(OC)c3Cl)ccc2n1 [BLU-9931]	-50.4
C[N]1N=CN=C1[C@@H]2[C@H](NC3=CC(=CC4=C3\C2=N/NC4=O)F)C5=CC=C(F)C=C5 [BMN-673]	-16.8
CCNC(=O)Nc1ncc(-c2cc(-c3c(C)cc(OC)cc3C)nc(-c3cnccn3)n2)s1 [BMS-4]	14
CN(CC(=O)N(Cc1ccc(C2CCCCC2)cc1)c1ccc(C(=O)O)c(O)c1)[S+](=O)([O-])c1c(F)c(F)c(F)c(F)c1F [BP-1-102]	-10.2
O=C(Cc1ccccc1)Nc1nnc(CCSCCc2nnc(NC(=O)Cc3ccccc3)s2)s1 [BPTES]	-25
